Measurements: patent US20050288347A1, “Certain triazole-based compounds, compositions, and uses thereof” (priority 2004, published 2005)
Entries after “also recorded” stand apart in the source; their conditions may differ. Where two headings read alike, the source gives them in different places.

Molecular target: protein kinase
Test: HTS ATP-utilizing enzyme assay, off-chip mobility-shift format (Caliper HTS 250)
Assay type: biochemical, human
Conditions: for Kinase: kinase(s) for which the compound exhibits protein kinase inhibitory activity, active = greater than three-sigma from the mean activity of inactive compounds
In short: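 Kinase reactions ran 2.5 h at 20 to 22 °C with test compound at 10 μM, in a HEPES pH 7.5 master buffer containing Triton X-100 and BSA. Peptide substrate and phosphorylated product separated by mobility shift; inhibition normalized to DMSO (0%) and EDTA (100%) controls, with three-sigma thresholds for hits.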

[1] = test compound 10 μM, active = activity greater than three-sigma from the mean of the predominately inactive population for that enzyme

Kinase (test compound 10 μM) | protein kinase against which the compound exhibits inhibitory activity (Table 3) [1] | Structure (SMILES) | further results
FLT-3; also recorded: PDGFRR-α |  | O=[N+]([O-])c1ccc(Sc2nnc(COc3ccccc3)n2-c2ccccc2)c2cccnc12 [8-nitro-5-(5-(phenoxymethyl)-4-phenyl-4H-1,2,4-triazol-3-ylthio)quinoline] | 
 | AURORA-A | CCn1c(SCc2cc(=O)[nH]c3ccccc23)nnc1-c1cc2ccccc2cc1O | 
 | GSK3-α | c1cncc(-c2nnc(SCCN3CCCCC3)[nH]2)c1 | 
GSK3-α |  | FC(F)(F)c1cccc(NCc2nnc(S)n2-c2ccccc2)c1 | 
PDGFRR-α |  | Cc1ccc(NCc2nnc(SCC(N)=O)n2Cc2ccco2)c(C)c1 | 
PDGFRR-α and FYN |  | COc1ccc(NCc2nnc(SCC(=O)Nc3ncc(C)s3)n2-c2ccccc2)cc1 | 
MSK1 and MSK2 and GSK3-β |  | CCn1c(SCC(=O)c2cccs2)nnc1-c1ccc(O)cc1 | 
 |  | COc1ccccc1-n1c(SCCCCc2ccccc2)nnc1-c1ccc(N)nc1 | protein kinase against which the compound exhibits inhibitory activity (Table 3): MAPKAPK-3
GSK3-α; also recorded: GSK3-β |  | Cn1c(SCC(=O)Nc2nccs2)nnc1-c1ccc(S(=O)(=O)N2CCOCC2)cc1 | 
 | MSK1 | CCc1ccc(OCc2nnc(SCCC(=O)O)n2CC)cc1 | 
 | DYRK2 | C=CCn1c(CCC2CCCC2)nnc1SCC=C(C)C [4-allyl-3-(2-cyclopentylethyl)-5-(3-methylbut-2-enylthio)-4H-1,2,4-triazole] | 
 | GSK3-α; also recorded: CHEK2 | Cc1nn(-c2ccccc2)c2sc(-c3nnc(SCCN4CCCCC4)n3C)cc12 | 
 | GSK3-β; also recorded: GSK3-α | COc1ccc(CCn2c(CCC3CCCC3)nnc2SCC=C(C)C)cc1OC | 
 | GSK3-α | CCN(CC)S(=O)(=O)c1ccc(-c2nnc(SCc3nnc(-c4ccccc4)o3)n2CC)cc1 | 
 | GSK3-α | COc1ccc(-n2c(SCc3nnc(-c4ccccc4)o3)nnc2-c2ccncc2)cc1 | 
 | AURORA-A | N#Cc1ccccc1CSc1nnc(-c2ccc(OC(F)(F)F)cc2)[nH]1 | 
DYRK2 |  | CCCn1c(SCC(=O)c2ccc3c(c2)OCCO3)nnc1-c1ccco1 | 
GSK3-α; also recorded: GSK3-β |  | CCN(CC)S(=O)(=O)c1ccc(-c2nnc(SCC(=O)Nc3nccs3)n2CC)cc1 | 
GSK3-β; also recorded: GSK3-α |  | C=CCn1c(S)nnc1-c1cc(OC)c(OC)c(OC)c1 [4-allyl-5-(3,4,5-trimethoxyphenyl)-4H-1,2,4-triazole-3-thiol] | 
PDGFRR-α |  | CCn1c(SCC(=O)Nc2ccccc2C)nnc1C(C)C [2-(4-ethyl-5-isopropyl-4H-1,2,4-triazol-3-ylthio)-N-o-tolylacetamide] | 
PRAK and CHEK2 and AURORA-A |  | COc1ccc(-c2nnc(SCC(=O)Nc3cccc(Cl)c3)n2-c2ccccc2)cc1 | 

Kinase (test compound 10 μM) | protein kinase against which the compound exhibits inhibitory activity (Table 3) [1] | Structure (SMILES) | further results
 | AURORA-A; also recorded: c-TAK1 | C=CCCc1nnc(SCc2ccccc2)n1Cc1ccc(Cl)c(Cl)c1 [3-(benzylthio)-5-(but-3-enyl)-4-(3,4-dichlorobenzyl)-4H-1,2,4-triazole] | 
AKT1 |  | CCn1c(COc2ccc(OC)cc2)nnc1SCC(=O)O | 
 | MAPKAPK-2 | CC(C)(C)c1ccc(CSc2nnc(-c3ccncc3)n2Cc2ccco2)cc1 | 
 | MSK2 and SRC | O=[N+]([O-])c1ccc(CSc2nnc[nH]2)cc1 [3-(4-nitrobenzylthio)-4H-1,2,4-triazole] | 
SRC and GSK3-α and AKT3 |  | O=C(CSc1nnc(-c2ccncc2)n1Cc1ccco1)Nc1ccccc1 | 
 | c-TAK1 | Clc1ccc(Cn2c(SCc3ccccc3)nnc2C2CCCCC2)cc1Cl [3-(benzylthio)-5-cyclohexyl-4-(3,4-dichlorobenzyl)-4H-1,2,4-triazole] | 
 | FYN and SRC and FLT-3 | Cc1cc(C)nc(SCc2nnc(SCC(=O)NNC(=O)c3ccccc3O)n2C)n1 | 
GSK3-β |  | Cn1c(SCSC#N)nnc1-c1ccc(S(=O)(=O)N2CCOCC2)cc1 | 
GSK3-α |  | C=CCn1c(S)nnc1COc1ccc(Cl)cc1 [4-allyl-5-((4-chlorophenoxy)methyl)-4H-1,2,4-triazole-3-thiol] | 
 | AKT2 | O=S(=O)(CCSc1nnc(Cc2ccccc2)n1-c1ccccc1)Nc1ccccc1 [2-(5-benzyl-4-phenyl-4H-1,2,4-triazol-3-ylthio)-N-phenylethanesulfonamide] | 
 | GSK3-a; also recorded: AURORA-A | CCn1c(SCC(=O)NNC(=O)c2ccc(OC)cc2)nnc1-c1ccc(O)cc1 | 
CHEK2 |  | COc1ccc(-n2c(CNc3ccccc3Cl)nnc2SCC(=O)Nc2ccc([N+](=O)[O-])cc2)cc1 | 
PDGFRR-α and FYN |  | Cc1ccc(NCc2nnc(SCC(=O)NCc3ccco3)n2CC2CCCO2)c(C)c1 (stereo not drawn) | 
FYN and GSK3-α |  | CCOC(=O)CN(C(=O)CSc1nnc(-c2ccncc2)n1Cc1ccco1)c1cccc([N+](=O)[O-])c1 | 
GSK3-β |  | C=CCn1c(SCC(=O)O)nnc1-c1ccc([N+](=O)[O-])cc1 [2-(4-allyl-5-(4-nitrophenyl)-4H-1,2,4-triazol-3-ylthio)acetic acid] | 
MAPKAPK-2 |  | COc1ccc(-n2c(SCC(N)=O)nnc2-c2ccc(S(=O)(=O)N3CCCC3)cc2)cc1 | 
CSK |  | O=C(CSc1nnc(CSc2nc3ccccc3s2)n1-c1ccccc1)NCCN1CCOCC1 | 
INSR and SYK |  | COc1ccc(-c2nnc(SCC(=O)Nc3ccccc3Cl)n2-c2ccccc2)cc1 | 
GSK3-α |  | O=C(CSc1nnc(-c2ccc(O)cc2)n1-c1cccc(Cl)c1)Nc1ccccc1 | 
PDGFRR-α and FYN |  | CCOc1ccc(NCc2nnc(SCC(=O)Nc3cc(C)on3)n2-c2ccccc2OC)cc1 | 

Structure (SMILES) | Kinase (test compound 10 μM) | protein kinase against which the compound exhibits inhibitory activity (Table 3) [1] | further results
CC(=O)c1cccc(NC(=O)CSc2nnc(-c3ccc(O)cc3)n2C)c1 | GSK3-β; also recorded: GSK3-α; also recorded: CHEK2 |  | 
CCCCSc1nnc(-c2ccc(Cl)c(Cl)c2)[nH]1 [3-(butylthio)-5-(3 ,4-dichlorophenyl)-4H-1,2,4-triazole] |  | AURORA-A; also recorded: FLT-3; also recorded: GSK3-α | 
CCOCCSc1nnc(-c2ccc(Cl)c(Cl)c2)[nH]1 [3-(3,4-dichlorophenyl)-5-(2-ethoxyethylthio)-4H-1,2,4-triazole] |  | AURORA-A; also recorded: GSK3-β; also recorded: GSK3-α | 
O=C(NCCSc1nnc(-c2cccs2)[nH]1)c1ccccc1 [N-(2-(5-(thiophen-2-yl)-4H-1,2,4-triazol-3-ylthio)ethyl)benzamide] |  | DYRK2; also recorded: GSK3-α; also recorded: GSK3-β | 
COc1ccc2nc(NC(=O)CSc3nnc(-c4ccc(O)cc4)n3CC3CCCO3)sc2c1 (stereo not drawn) | GSK3-β; also recorded: PDGFRR-α; also recorded: GSK3-α |  | 
CCCCSc1nnc(-c2ccccc2)[nH]1 [3-(butylthio)-5-phenyl-4H-1,2,4-triazole] |  | AURORA-A; also recorded: FLT-3; also recorded: c-TAK1 | 
COc1ccc(-n2c(S)nnc2CNc2ccc(C)cc2)cc1 [5-((p-toluidino)methyl)-4-(4-methoxyphenyl)-4H-1,2,4-triazole-3-thiol] | AURORA-A; also recorded: PDGFRR-α; also recorded: GSK3-β |  | 
